Measured values as given in patent publication US6841519B1, “Isoxazoline derivatives and herbicides containing the same as the active ingredient” (Kumiai Chemical Industry Co., Ltd., priority 1999, dated 2005).

Assays:
Type in all cases: in vivo
[1] = system: Echinochloa crus-galli (L.) Beauv. var. crusgalli (Ec); assay: Test for herbicidal effect by upland foliage treatment (Test Example 3); conditions: 100 g/10 a active ingredient, examined at 14th day
Protocol: Test For Herbicidal Effect By Upland Foliage Treatment
An upland field soil was filed in a plastic pot of 80 cm^2. Seeds of Echinochloa crus-galli (L.) Beauv. var. crusgalli (Ec) were sowed. Breeding was made in a greenhouse for 2 weeks. Wettable powders produced in accordance with the Formulation 1 were diluted with water and sprayed on the whole foliage of plants from above the plants using a small sprayer in an amount of 100 liters per 10 ares so that the amount of each active ingredient became 100 g per 10 ares. Then, breeding was made in the greenhouse, and the herbicidal effect of each wettable powder was examined at the 14th day from the treatment in accordance with the standard shown in Table 40.

[2] = system: Echinochloa crus-galli (L.) Beauv. var. crusgall (Ec); assay: Test for herbicidal effect by upland field soil treatment (Test Example 2), Ec
Protocol: (§1) [table] <Test Example 2> Test For Herbicidal Effect By Upland Field Soil Treatment An upland field soil was filed in a plastic pot of 80 cm^2. Seeds of Echinochloa crus-galli (L.) Beauv. var. crusgall (Ec) and Setaria viridis (L.) Beauv. (Se) were sowed, followed by covering with the same soil. Wettable powders produced in accordance with the Formulation 1 were diluted with water and sprayed uniformly: on the soil surface using a small sprayer, in an amount of 100 liters per 10 ares so that the amount of each active ingredient became 100 g per 10 ares. Then, breeding was made in a greenhouse, and the herbicidal effect of each wettable powder was examined at the 21st day from the treatment in accordance with the standard shown in Table 40.

[3] = system: Echinochloa oryzicola Vasing. (Eo); assay: Test for herbicidal effect by paddy field soil treatment (Test Example 1); conditions: application amount (active ingredient) 100 g/10 a, examined at the 21st day from the treatment, index per Table 40
Protocol: <Test Example 1> Test For Herbicidal Effect By Paddy Field Soil Treatment A paddy field soil was filled in a plastic pot of 100 cm^2 and subjected to puddling. Then, seeds of Echinochloa oryzicola Vasing. (Eo) were sowed and water was filled in a depth of 3 cm. Next day, wettable powders produced in accordance with the Formulation 1 were diluted with water and dropped on the water surface. The application amount of each wettable powder was 100 g per 10 ares in terms of the active ingredient. Then, breeding was made in a greenhouse, and the herbicidal effect of each wettable powder was examined at the 21st day from the treatment in accordance with the standard shown in Table 40. [table]

[4] = system: Setaria viridis (L.) Beauv. (Se); assay: Test for herbicidal effect by upland field soil treatment (Test Example 2), Se
Protocol: as §1

[5] = 100 g/10 a active ingredient, examined at 21st day
[6] = application amount (active ingredient) 100 g/10 a, examined at the 21st day from the treatment, index per Table 40

| Compound | Herbicidal effect to Ec [1] | Herbicidal effect to Ec [2, 5] | Herbicidal effect to Eo [3] | Herbicidal effect to Se [4, 6] | Herbicidal effect to Ec [2, 6] | Herbicidal effect to Se [4, 5] |
| --- | --- | --- | --- | --- | --- | --- |
| CCCCOc1cccc(F)c1CS(=O)(=O)C1=NOC(C)(C)C1 [Compound 1-571] | 5 (A herbicidal effect or phytotoxicity of 90% or more) | 5 (A herbicidal effect or phytotoxicity of 90% or more) | 5 (A herbicidal effect or phytotoxicity of 90% or more) |  |  |  |
| Cc1ccc(C)c(CS(=O)(=O)C2=NOC(C)(C)C2)c1C [Compound 1-616] | 5 (A herbicidal effect or phytotoxicity of 90% or more) | 5 (A herbicidal effect or phytotoxicity of 90% or more) | 5 (A herbicidal effect or phytotoxicity of 90% or more) |  |  |  |
| COc1cccc(CS(=O)(=O)C2=NOC(C)(C)C2)c1 [Compound 1-41] |  |  | 5 (A herbicidal effect or phytotoxicity of 90% or more) | 5 (A herbicidal effect or phytotoxicity of 90% or more) | 5 (A herbicidal effect or phytotoxicity of 90% or more) |  |
| CC1(C)CC(S(=O)(=O)Cc2ccc(F)cc2)=NO1 [Compound 1-34] |  |  | 5 (A herbicidal effect or phytotoxicity of 90% or more) | 5 (A herbicidal effect or phytotoxicity of 90% or more) | 5 (A herbicidal effect or phytotoxicity of 90% or more) |  |
| COC(=O)c1cccc(Cl)c1CS(=O)(=O)C1=NOC(C)(C)C1 [Compound 1-618] |  | 5 (A herbicidal effect or phytotoxicity of 90% or more) | 5 (A herbicidal effect or phytotoxicity of 90% or more) |  |  | 5 (A herbicidal effect or phytotoxicity of 90% or more) |
| CC1(C)CC(S(=O)(=O)Cc2ccc(F)cc2C(F)(F)F)=NO1 [Compound 1-551] |  | 5 (A herbicidal effect or phytotoxicity of 90% or more) | 5 (A herbicidal effect or phytotoxicity of 90% or more) |  |  | 5 (A herbicidal effect or phytotoxicity of 90% or more) |
| Fc1cccc(F)c1CSC1=NOC2(CCC2)C1 [Compound 1-381] |  |  | 5 (A herbicidal effect or phytotoxicity of 90% or more) | 4 (A herbicidal effect or phytotoxicity of 70% to less than 90%) | 4 (A herbicidal effect or phytotoxicity of 70% to less than 90%) |  |
| CC1(C)CC(S(=O)(=O)Cc2cccc(F)c2)=NO1 [Compound 1-33] |  |  | 5 (A herbicidal effect or phytotoxicity of 90% or more) | 5 (A herbicidal effect or phytotoxicity of 90% or more) | 5 (A herbicidal effect or phytotoxicity of 90% or more) |  |
| CCOC(=O)c1cccc(Cl)c1CS(=O)(=O)C1=NOC(C)(C)C1 [Compound 1-619] |  | 5 (A herbicidal effect or phytotoxicity of 90% or more) | 5 (A herbicidal effect or phytotoxicity of 90% or more) |  |  | 4 (A herbicidal effect or phytotoxicity of 70% to less than 90%) |
| O=S(=O)(Cc1c(F)cccc1F)C1=NOC2CCCCCC12 (centres unmarked) [Compound 1-388] |  |  | 5 (A herbicidal effect or phytotoxicity of 90% or more) | 5 (A herbicidal effect or phytotoxicity of 90% or more) | 5 (A herbicidal effect or phytotoxicity of 90% or more) |  |
| CC(C)OC(=O)c1cccc(Cl)c1CS(=O)(=O)C1=NOC(C)(C)C1 [Compound 1-621] |  | 5 (A herbicidal effect or phytotoxicity of 90% or more) | 5 (A herbicidal effect or phytotoxicity of 90% or more) |  |  | 4 (A herbicidal effect or phytotoxicity of 70% to less than 90%) |
| COCC1(C)CC(S(=O)(=O)Cc2c(F)cccc2F)=NO1 (centres unmarked) [Compound 1-397] | 4 (A herbicidal effect or phytotoxicity of 70% to less than 90%) |  | 5 (A herbicidal effect or phytotoxicity of 90% or more) |  |  |  |
| CCC1(C)CC(S(=O)(=O)Cc2ccc(C#N)cc2)=NO1 (centres unmarked) [Compound 1-329] |  |  | 5 (A herbicidal effect or phytotoxicity of 90% or more) | 5 (A herbicidal effect or phytotoxicity of 90% or more) | 5 (A herbicidal effect or phytotoxicity of 90% or more) |  |
